{
  "source": "paper PMC4729198",
  "about": "(ACS chemical biology, 2015)",
  "key": {"MtbAPSR [1]": {"target": "T1, MtbAPSR (Mycobacterium tuberculosis, UniProt P9WIK3)", "T1 sequence (P9WIK3 whole entry)": "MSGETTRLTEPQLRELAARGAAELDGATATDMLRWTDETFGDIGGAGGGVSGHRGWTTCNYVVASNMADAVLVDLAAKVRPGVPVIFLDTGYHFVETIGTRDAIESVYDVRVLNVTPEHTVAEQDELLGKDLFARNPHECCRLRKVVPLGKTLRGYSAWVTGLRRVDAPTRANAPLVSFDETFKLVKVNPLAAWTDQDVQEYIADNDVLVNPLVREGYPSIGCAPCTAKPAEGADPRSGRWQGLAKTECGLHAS", "test": "biochemical", "parameters": "species or system M. tuberculosis"}, "LUM assay counterscreen": {"test": "LUM assay counterscreen", "assay_type": "biochemical", "settings": "LOPAC pilot screen, dose-response"}, "RecA": {"tested_on": "RecA", "settings": "qRT-PCR, normalized to housekeeping gene SigA"}, "[2]": {"test": "HRP-PR H2O2 detection counterscreen for redox-cycling compounds", "assay_type": "biochemical", "settings": "0.8 mM DTT"}, "[3]": {"tested_on": "Non replicating WT Mtb H37Rv", "test": "Bactericidal activity against nonreplicating", "assay_type": "cell-based", "settings": "Mycobacterium tuberculosis"}, "MtbAPSR [4]": {"target": "T1, MtbAPSR", "test": "biochemical", "assay_type": "binding, M. tuberculosis"}, "VERO cells": {"tested_on": "VERO cells", "test": "Cytotoxicity in VERO cells", "assay_type": "cell-based"}, "[5]": {"tested_on": "Non replicating Msm mc2:155 ΔcysH", "assay_type": "cell-based, Mycobacterium smegmatis", "settings": "2 mM methionine; Alamar Blue assay"}},
  "note": "Like-named read-outs stand apart in the source and are kept apart here.",
  "data": [
    {"smiles": "CSc1nc(N)c2ncn([C@@H]3O[C@H](COP(=O)(O)OP(=O)(O)O)[C@@H](O)[C@H]3O)c2n1.[Na].[Na].[Na]", "note": "[2-Thiomethyladenoside diphosphate trisodium, reference compound]", "values": [
      {"measurement": "activity in LUM assay", "setting": "MtbAPSR [1]", "result": "active"},
      {"measurement": "activity in LUM counterscreen", "setting": "LUM assay counterscreen", "result": "active"}
    ]},
    {"smiles": "CO[C@@]12[C@H](COC(N)=O)C3=C(C(=O)C(C)=C(N)C3=O)N1C[C@@H]1N[C@@H]12", "note": "[mitomycin C]", "values": [
      {"measurement": "upregulation of RecA", "setting": "RecA", "result": "significant upregulation"}
    ]},
    {"smiles": "O=C1C(SCCO)=C(SCCO)C(=O)c2ccccc21", "note": "[NSC 95397]", "values": [
      {"measurement": "generation of H2O2 in HRP-PR assay", "setting": "[2]", "result": "showed generation of H2O2"}
    ]},
    {"smiles": "Cl.N[C@@H](CCl)C(=O)O", "note": "[β-Chloro-L-alanine hydrochloride, reference compound]", "values": [
      {"measurement": "activity in LUM assay", "setting": "MtbAPSR [1]; LOPAC pilot screen, dose-response", "result": "no activity"},
      {"measurement": "activity in LUM counterscreen", "setting": "LUM assay counterscreen", "result": "no activity"}
    ]},
    {"smiles": "Cc1c2ccncc2c(C)c2c1[nH]c1ccccc12", "note": "[Compound 5, ellipticine]", "values": [
      {"measurement": "IC50", "setting": "MtbAPSR [1]; LUM Assay, IC50, dose-response LUM assay, Table 1", "result": 4.2, "unit": "µM"},
      {"measurement": "IC50", "setting": "MtbAPSR [1]; apparent IC50 in LUM assay, LOPAC pilot screen hit, dose-response, 384-well", "result": 11.1, "unit": "µM"},
      {"measurement": "activity in LUM counterscreen", "setting": "LUM assay counterscreen", "result": "inactive"},
      {"measurement": "MBC", "setting": "[3]; read-out: Non replicating WT Mtb H37Rv, (+) Met", "result": 12.5, "unit": "µM"},
      {"measurement": "MBC", "setting": "[3]; read-out: Non replicating WT Mtb H37Rv, (−) Met", "result": 12.5, "unit": "µM"},
      {"measurement": "Kd", "setting": "MtbAPSR [4]", "result": 12, "unit": "µM"},
      {"measurement": "lethal concentration (LC90) in VERO cells", "setting": "VERO cells", "result": 63, "unit": "µM"},
      {"measurement": "cytotoxicity fold lower compared to bactericidal activity against nonreplicating Mtb", "setting": "VERO cells; VERO LC90 vs MBC", "result": "~ 5 fold"},
      {"measurement": "Non replicating Msm mc2:155; MBC, ΔcysH", "setting": "[5]", "result": ">100", "unit": "µM"}
    ]}
  ]
}
